Legend:
Myzus persicae = Myzus persicae test (spray on infested cabbage leaves); type: in vivo; conditions: single active substance
[1] = tested on: Phaedon cochleariae larvae; experiment: Phaedon cochleariae larvae test (sprayed cabbage leaves); conditions: for Destruction in % after 2 d: single active substance
[2] = Phaedon cochleariae, in Brassica oleracea, 144 h, read-out: Destruction in % after 6 d

SMILES	pest or weed control at 100 g/ha [1, 2]	Destruction in % after 1 d (Myzus persicae; 0.16 g/ha)	Destruction in % after 6 d (Myzus persicae; 0.16 g/ha)	pest or weed control at 4 g/ha [1, 2]	other results
O=C1C=C(N(Cc2ccc(Cl)nc2)CC(F)F)CO1 [Compound (I-5), 4-{[(6-chloropyrid-3-yl)methyl](2,2-difluoroethyl)amino}furan-2(5H)-one]	50%	–	–	–	Destruction in % after 6 d (Myzus persicae; 0.8 g/ha): 30%; pest or weed control at 20 g/ha [1, 2]: 0%; Destruction in % after 2 d ([1]; 100 g/ha): 33%
O=C1C=C(N(CCF)Cc2ccc(Cl)nc2)CO1 [Compound (I-4), 4-{[(6-chloropyrid-3-yl)methyl](2-fluoroethyl)amino}furan-2(5H)-one]	0%	–	–	–	Destruction in % after 1 d (Myzus persicae; 4 g/ha): 50%; Destruction in % after 6 d (Myzus persicae; 4 g/ha): 70%
CN/C(=N\[N+](=O)[O-])NCc1cnc(Cl)s1 [Clothianidin]	–	0%	10%	33%	–
O=[N+]([O-])/N=C1\NCCN1Cc1ccc(Cl)nc1 [Imidacloprid]	–	20%	–	0%	–
CN1COCN(Cc2cnc(Cl)s2)/C1=N/[N+](=O)[O-] [Thiamethoxam]	–	–	30%	17%	Destruction in % after 6 d (Myzus persicae; 0.032 g/ha): 0%
C/C(=N\C#N)N(C)Cc1ccc(Cl)nc1 [Acetamiprid]	–	–	–	–	Destruction in % after 6 d (Myzus persicae; 0.032 g/ha): 0%; Destruction in % after 2 d ([1]; 4 g/ha): 0%
CN(Cc1cnc(Cl)c(F)c1)C1=CC(=O)OC1 [Compound (I-6), 4-{[(6-chloro-5-fluoropyrid-3-yl)methyl](methyl)amino}furan-2(5H)-one]	0%	–	–	–	Destruction in % after 2 d ([1]; 100 g/ha): 0%
CN/C(=N\[N+](=O)[O-])NCC1CCOC1 (stereo not drawn) [Dinotefuran]	–	–	–	0%	–
N#C/N=C1\SCCN1Cc1ccc(Cl)nc1 [Thiacloprid]	–	20%	0%	17%	Destruction in % after 2 d ([1]; 4 g/ha): 0%
